From PubChem BioAssay AID602421 (The Scripps Research Institute Molecular Screening Center, 2012)
Several values for one entry are separate records, joined by “and”; a condition that tells them apart may be missing. Identical values can stand only once. Activity calls are given as the source filed them. How the calls were made is not given here.

Target: AddAB helicase-nuclease (Helicobacter pylori 26695)
Test: inhibition of H. pylori AddAB nuclease activity – biochemical, radioactivity, purified enzyme, IC50, late-stage follow-up (AID 602421)
Settings: radioactive DNA degradation

Row | Structure (SMILES) | IC50
1 | CCn1cc(C(=O)O)c(=O)c2cnc(N3CCN(C(=S)Nc4ccccc4C(F)(F)F)CC3)nc21 | 34 µM and > 100 µM (inactive)
2 | N#Cc1c(NC(=O)c2ccccc2C(=O)O)sc2c1CCCC2 | > 100 µM (inactive)
3 | N#Cc1c(NC(=O)c2cnccn2)sc2c1CCCC2 | 17 µM
4 | CCn1cc(C(=O)O)c(=O)c2cc(F)c(N3CCN(C(=S)Nc4ccccc4C(F)(F)F)CC3)cc21 | 79 µM
5 | CCn1cc(C(=O)O)c(=O)c2cc(F)c(N3CCN(C(=S)Nc4cccc(C(F)(F)F)c4)CC3)cc21 | 11 µM
6 | CCn1cc(C(=O)O)c(=O)c2cnc(N3CCN(C(=S)NC(=O)c4cccc(C)c4)CC3)nc21 | inactive
7 | C=CCn1c(Sc2ncc([N+](=O)[O-])s2)n[nH]c1=O | 93 µM
8 | N#Cc1c(NC(=O)c2cccc(F)c2)sc2c1CCCC2 | > 100 µM (inactive)
9 | CCn1cc(C(=O)O)c(=O)c2cnc(N3CCN(C(=S)NCc4ccccc4)CC3)nc21 | inactive
10 | CC1(C)Cc2c(sc(NC(=O)c3ccco3)c2C#N)CO1 | > 100 µM (inactive)
11 | CCn1cc(C(=O)O)c(=O)c2cnc(N3CCN(C(=S)Nc4cccc(C(F)(F)F)c4)CC3)nc21 | 27 µM

Second part, the compound after the results:

Row | IC50 | Structure (SMILES)
12 | 96 µM | N#Cc1c(NC(=O)c2ccc([N+](=O)[O-])o2)sc2c1CCC2
13 | 55 µM | CNC(=O)c1c(NC(=O)c2nc(SCc3ccccc3)ncc2Cl)sc2c1CCCC2
14 | > 100 µM (inactive) | NC(=O)c1ccsc1NC(=O)COC(=O)c1ccc([N+](=O)[O-])o1
15 | > 100 µM (inactive) | O=C(Nc1cccc(NC(=O)c2ccccc2Cl)c1)c1ccc([N+](=O)[O-])o1
16 | > 100 µM (inactive) | O=C(OCC(=O)c1cccs1)c1ccc([N+](=O)[O-])o1
17 | 25 µM | Cc1sc(NC(=O)c2ccc(Br)o2)c(C#N)c1C
18 | > 166 µM (inactive) | Cc1cccnc1NC(=O)c1ccc([N+](=O)[O-])o1
19 | > 100 µM (inactive) | Cc1ccc(C(=O)Nc2sc3c(c2C#N)CCCCC3)o1
20 | > 100 µM (inactive) | O=C(Nc1ccc(N2CCOCC2)cc1)c1ccc([N+](=O)[O-])o1
21 | 11 µM | COC(=O)c1c(-c2ccccc2)csc1NC(=O)c1cnccn1
22 | > 100 µM (inactive) | N#Cc1c(NC(=O)c2ccc(-c3ccccc3[N+](=O)[O-])o2)sc2c1CCCC2
23 | > 100 µM (inactive) | N#Cc1c(NC(=O)c2ccccc2)sc2c1CCC2
24 | > 100 µM (inactive) | O=C(NCc1cccnc1)c1ccc([N+](=O)[O-])o1
25 | > 166 µM (inactive) | Cc1ccc2nc(/C(C#N)=C\c3ccc([N+](=O)[O-])o3)[nH]c2c1
26 | 36 µM | N#Cc1c(NC(=O)c2ccco2)sc2c1CCC2
27 | > 100 µM (inactive) | N#Cc1c(NC(=O)c2ccc([N+](=O)[O-])o2)sc2c1CCCC2
28 | > 100 µM (inactive) | O=C(Nc1ncccn1)c1ccc([N+](=O)[O-])o1
